Marks after values point to notes of the source that are not given here.

One experiment relates to S180. The experiment is described as follows: Mice bearing S180, tumor weight and inhibition rate. The format is in vivo, Kunming mice. As to the method: (§1) Choose mice which are in good health conditions and received S180 tumor injection 8 days ago, disinfect abdominal skin, draw ascites, mix with normal saline as ratio of 1:4 (ascites volume:normal saline volume) to make suspension. […] In all groups, subcutaneously inject 0.2 ml of the aforementioned suspension at the right anterior lobe. 2 hours after injection, mice in control group and drug groups receive test substance or suspension via intragastric administration once a day for 14 consecutive days. In positive control group, CTX is administered intraperitoneally once every other day for a total of 7 times.
as §1, with “intragastric or intravenous” for “intragastric”

The next experiment has as its system transplanted tumor S 180. Conditions: control group (positive control cyclophosphamide 85 mg/kg daily). As to the method:
Take Kunming mice, subcutaneously inject 0.2 ml of S180 suspension (about 1×10^6 tumor cells) in a routine way at the right anterior lobe. 24 hours after injection, mice are randomly grouped and numbered. There are 10 mice in the control groups, and 10 mice each in test groups of high dose, middle dose, and low dose. Mice in each group receive drugs via intragastric administration once a day for a total of 14 times. In positive control group, cyclophosphamide (85 mg/kg) is given daily, and the dose, frequency, time are identical with the test groups.

The test system of another experiment is pulmonary fibrosis. The experiment can be described thus: Bleomycin-induced pulmonary fibrosis in rats. The experiment is classed as in vivo, SD rats. Conditions: lung, 30 days. As to the method: Take 60 SD rats (200-240 g, male), randomly divide into sham operation control group (0.5% mucilage tragacanth), model control group (0.5% mucilage tragacanth), positive control group (dexamethasone, 1 mg/kg), Paliurus ramosissimus (Lour) Poir. extract (prepared according to Embodiment 1) low-dose group (0.4 g/kg), Paliurus ramosissimus (Lour) Poir. extract middle-dose group (0.8 g/kg), and Paliurus ramosissimus (Lour) Poir. extract high-dose group (1.6 g/kg) with stratification of body weight. All animals receive trachea separation under anesthesia by intraperitoneal injection of 10% chloral hydrate (350 mg/kg). Except the sham operation control group, rats in other groups receive injection of 5 mg/kg of bleomycin in 0.4 ml of normal saline solution, while rats in sham operation control group receive normal saline solution only. From the next day after surgery, test substance is given daily for 30 consecutive days. Sacrifice the animals by cervical dislocation, and take the lungs; some organs are homogenized for hydroxyproline content determination, and some are for pathological examination.
Take 60 SD rats (200-240 g, male), randomly divide into sham operation control group, model control group, positive control group (dexamethasone, 1 mg/kg), Paliurus ramosissimus (Lour) Poir. extract group (prepared according to Embodiment 1, 0.8 g/kg. op), Ligustrazine (40 mg/kg, ip)and drug combination group (Paliurus ramosissimus (Lour) Poir. Extract 0.8 g/kg, op; Ligustrazine injection40 mg/kg, ip) with stratification of body weight. All animals receive trachea separation under anesthesia by intraperitoneal injection of 10% chloral hydrate (350 mg/kg). Except the sham operation control group, rats in other groups receive injection of 5 mg/kg of bleomycin in 0.4 ml of normal saline solution, while rats in sham operation control group receive normal saline solution only. The next day after the surgery, give the test substance via intragastric administration or injection administration, test substance is given daily for 30 consecutive days. […]

In a further experiment the test system is TNBS induced colitis. The experiment can be described thus: TNBS induced experimental colitis in rats. The experiment is classed as in vivo. Conditions: 2 mg/kg. As to the method: After the animals are fasted for 24 h, perform anesthesia with sodium pentobarbital. Except the sham operation group, perform coloclysis with TNBS and 40% ethanol, and replicate experimental colitis model; 6 h after model construction, administer test substance. At the day 5 of administration, draw tail vein blood and count leukocyte. At day 6, perform urethane anesthesia, draw abdominal aortic blood and sacrifice the animals by cervical dislocation. Cut 9 cm colon from the anus, in an ice bath, cut intestine along the mesenteric edge, wash out the contents, measure the ulcer area, calculate the percentage of ulcer area; weigh the colon, scrap colonic mucosa, and determine tumor necrosis factor (TNF-α) concentration with ELISA method.

Experiment [1] concerns experimental hepatic fibrosis. The experiment is described as follows: Carbon tetrachloride-induced liver fibrosis in rats. Conditions: 3 months. The format is in vivo, SD rats. As to the method:
Take 60 SD rats (200-240 g, male), randomly divide into blank control group (0.5% mucilage tragacanth), model control group (0.5% mucilage tragacanth), positive control group (dexamethasone, 1 mg/kg), Paliurus ramosissimus (Lour) Poir. extract (prepared according to Embodiment 1) low-dose group (0.4 g/kg), Paliurus ramosissimus (Lour) Poir. extract middle-dose group (0.8 g/kg), and Paliurus ramosissimus (Lour) Poir. extract high-dose group (1.6 g/kg) with stratification of body weight. Except the blank control group, rats in other groups receive subcutaneous injection of 1 ml/kg of 40% carbon tetrachloride in vegetable oil solution, 2 times a week for 3 consecutive months, while receiving high-fat diet and 5% ethanol aqueous solution. Test substance is given via intragastric administration once daily for 3 consecutive months. On the next day after drug administration, draw abdominal aortic blood, separate plasma, determine the levels of alanine aminotransferase (ALT), III procollagen (PC-III), hyaluronic acid (HA) and laminin (LH); the sacrifice the animals, and take the liver for pathological examination.
Take 60 SD rats (200-240 g, male), randomly divide into blank control group, model control group, positive control group (dexamethasone, 1 mg/kg), Paliurus ramosissimus (Lour) Poir. extract group (prepared according to Embodiment 1, 0.8 g/kg), Polyene phosphatidylcholine group, drug combination group (Paliurus ramosissimus (Lour.) Poir. Extract0.8 g/kg+Polyene phosphatidylcholine1 ml/kg) with stratification of body weight. Except the blank control group, rats in other groups receive subcutaneous injection of 1 ml/kg of 40% carbon tetrachloride in vegetable oil solution, 2 times a week for 3 consecutive months, while receiving high-fat diet and 5% ethanol aqueous solution. Test substance is given via intragastric administration once daily for 3 consecutive months. On the next day after drug administration, draw abdominal aortic blood, separate plasma, determine the levels of alanine aminotransferase (ALT), III procollagen (PC-III), hyaluronic acid (HA) and laminin (LH); the sacrifice the animals, and take the liver for pathological examination.

The next experiment has as its system Ehrlich ascites tumor. The experiment can be described thus: Mice bearing Ehrlich ascites tumor, survival time and ascites weight. The format is in vivo, Kunming mice. Conditions: 40 mg/kg intraperitoneally every other day, 7 times. As to the method: Choose mice which are in good health conditions and received Ehrlich ascites tumor injection 8 days ago, disinfect abdominal skin, draw ascites, mix with normal saline to […] for future use. […] In all groups, subcutaneously inject 0.2 ml of the aforementioned suspension at the right anterior lobe. 2 hours after injection, mice in control group and drug groups receive test substance or suspension via intragastric administration once a day, administer continuously until the animal is dying. In positive control group, CTX is administered intraperitoneally once every other day for a total of 7 times. When the animal is dying, sacrifice it by cervical dislocation; the day of dying is calculated as survival time; after death, weigh, exhaust ascites, weigh again, and the difference is the weight of ascites.

Another experiment deals with peritoneal macrophages. The experiment can be described thus: Peritoneal macrophage phagocytosis of normal mice. The format is in vivo, KM mice. Conditions: inhibition effect positive control 0.1 g/kg, one subcutaneous injection at day 13.
Experiment [2] has as its system pylorus ligation induced gastric ulcer. The experiment is described as follows: Pylorus ligation induced experimental gastric ulcer in rats. The conditions noted are these: 60 mg/kg intragastric, 3 days. The experiment is classed as in vivo.
Description: (§2) In all groups, mice receive test substance via intragastric administration once a day for 3 consecutive days.
as §2

Setting [3] is: Table 8, 1 ml/kg once a day, 14 days.
Setting [4] is: Table 8, 5 mg/kg once a day, 14 days.
Where [5] appears, read: Table 11, dexamethasone 1 mg/kg.
Where [6] appears, read: Table 6, 40 mg/kg intraperitoneally every other day, 7 times.
Where [7] appears, read: Table 8, 40 mg/kg intraperitoneally every other day, 7 times.
The mark [8] stands for this setting: Table 11, polyene phosphatidylcholine group (1 ml/kg in the combination).

Description for peritoneal macrophages: Except that the mice in inhibition effect positive control group receive one dose of subcutaneous injection at day 13, mice in other groups receive test substance or suspension via intragastric administration once a day for 14 consecutive days. At day 13 and 14, apply intraperitoneal injection of 6% starch solution respectively. 1 h after the last administration at day 14, apply intraperitoneal injection of 1 ml of 5% chicken erythrocytes in saline suspension; 30 min later, sacrifice the mice by cervical dislocation, apply intraperitoneal injection of 2 ml saline, and gently massage the abdomen. 1 min later, cut open abdomen, draw 1 ml of peritoneal washings, evenly drop on two slides, place in a wet box, and incubate at 37° C. for 30 min. Rinse in saline, dry, fix with 1:1 acetone-methanol solution, stain with 4% (v/v) Giemsa-PBS for 3 min, rinse with distilled water and dry, perform microscopic examination, and calculate the percentage of phagocytosis.

As to `CC(=O)O[C@H]1[C@H]2O[C@]23[C@@H]2CC[C@]4(O)C[C@@H](O)CC[C@]4(C)[C@H]2CC[C@]3(C)[C@H]1c1ccc(=O)oc1` [Cinobufotalin, cinobufotalin], in the experiment on S180 (setting [3]), the “Tumor inhibition rate (%)” value stood at 43.8% and the “Tumor weight” value worked out at 0.73 ± 0.42 g.
Take `O=P1(N(CCCl)CCCl)NCCCO1` (stereo not shown) [Control group, cyclophosphamide]: in the experiment on transplanted tumor S 180, the Tumor inhibition rate is 38.45 ± 3.62%.
On to `Cc1nc(C)c(C)nc1C` [Ligustrazine], for which the “Hydroxyproline content (mg/gpro)” value in the experiment on pulmonary fibrosis (Table 12, 40 mg/kg ip daily) is 14.6 ± 5.7 mg/gpro.
Take `CC(=O)O[C@H]1C(=O)[C@@]2(C)[C@H]([C@H](OC(=O)c3ccccc3)[C@]3(O)C[C@H](OC(=O)[C@H](O)[C@@H](NC(=O)c4ccccc4)c4ccccc4)C(C)=C1C3(C)C)[C@]1(OC(C)=O)CO[C@@H]1C[C@@H]2O` [Paclitaxel, paclitaxel]: in the experiment on S180 (setting [4]), the “Tumor inhibition rate (%)” value is listed as 34.6% and the “Tumor weight” value was determined as 0.85 ± 0.38 g.
In the case of `C[C@@H]1C[C@H]2[C@@H]3CCC4=CC(=O)C=C[C@]4(C)[C@@]3(F)[C@@H](O)C[C@]2(C)[C@@]1(O)C(=O)CO` [Positive Control, dexamethasone], the “Ratio of ulcer area (%)” value with TNBS induced colitis (colon, day 6) worked out at 28.6 ± 10.5 %. Moreover, the “TNF-α (ng/gpro)” value in the experiment on TNBS induced colitis (colonic mucosa, ELISA) amounted to 73.2 ± 19.6 ng/gpro. The “Leukocyte count (10^9/L)” value in the experiment on TNBS induced colitis (tail vein blood, day 5) is recorded as 8.4 ± 0.9** 10^9/L. Moreover, in the experiment with pulmonary fibrosis (Table 10, dexamethasone 1 mg/kg daily), the “Hydroxyproline content (mg/gpro)” value came out at 13.6 ± 3.3 mg/gpro. In the experiment with pulmonary fibrosis (Table 12, dexamethasone 1 mg/kg daily), the “Hydroxyproline content (mg/gpro)” value was 13.4 ± 3.7 mg/gpro. Besides, in experiment [1] (Table 9, dexamethasone 1 mg/kg), the “ALT (U/L)” value was found to be 456 ± 98 U/L, the “HA” value came to 280 ± 54 µg/L, the “LN” value turned out to be 62 ± 20 µg/L and the “PC-III” value came out at 20.8 ± 3.1 µg/L. Further, in experiment [1] (setting [5]), the “ALT (U/L)” value is 478 ± 90 U/L, the “HA” value was 285 ± 57 µg/L, the “LN” value amounted to 65 ± 23 µg/L and the “PC-III” value was found to be 20.6 ± 3.8 µg/L.
Take `O=P1(N(CCCl)CCCl)NCCCO1` (stereo not shown) [ctx, cyclophosphamide]: in the experiment with S180 (setting [6]), the “Tumor inhibition rate (%)” value came out at 70.8% and the “Tumor weight” value is listed as 0.35 ± 0.58 g. Further, in the experiment on S180 (setting [7]), the “Tumor inhibition rate (%)” value was 63.1% and the “Tumor weight” value is reported as 0.48 ± 0.41 g. Further, in the experiment with Ehrlich ascites tumor, the “Survival time” value worked out at 17.2 ± 2.3 days and the Weight of ascites worked out at 15.9 ± 1.5. Besides, the Percentage of phagocytosis with peritoneal macrophages was 0.12 ± 0.03.
For the compound `CNC(=C[N+](=O)[O-])NCCSCc1ccc(CN(C)C)o1` [ranitidine], the Ulcer index in experiment [2] (Table 19) was determined as 1.5 ± 0.4. In experiment [2] (Table 19, ulcer), the “Inhibition rate (%)” value worked out at 68.1%. For the same compound, in experiment [2] (Table 22), the Ulcer index came to 1.8 ± 0.6 and the “Ulcer inhibition rate (%)” value came out at 60.0%.
With Polyene phosphatidylcholine, in experiment [1] (setting [8]), the “ALT (U/L)” value is given as 443 ± 130 U/L, the “HA” value was found to be 284 ± 78 µg/L, the “LN” value turned out to be 63 ± 18 µg/L and the “PC-III” value was found to be 27.0 ± 4.8 µg/L.

The values above are taken from US20160256510A1, “PALIURUS RAMOSISSIMUS (LOUR.) POIR EXTRACT AND PREPARATION METHOD AND USES THEREOF” (priority 2013, published 2016).
